Assays:
[1] = test system: androst-4-ene 3, 17-dione metabolism; experiment: Steroid metabolism (androst-4-ene 3, 17-dione metabolism) of liver cells; format: cell-based, rat; conditions: STZ diabetic rats; Extract 1 200 μg/ml, Extract 2 10-120 μg/ml, Extract 3 1 ng/ml, Insulin 1 ng/ml, Inositol 100-100 μg/ml
Protocol: Isolated hepatocytes were prepared from control animals by a modification of the double perfusior technique of Seglen (1973) involving […] animal with halothane/nitrous oxide and inserting a cannula into the hepatic portal vein. The liver was subsequently perfused first with a calcium-free buffer and then with collagenase solution. The isolated cells were freed from the connective tissue by gentle combing. Hepatocytes were suspended in Ham's F-10 nutrient solution, Williams' medium E or Krebs-Henseleit medium depending on the assay to be performed. The effects of Extract 1 on steroid metabolism in liver cells was also studied. The animals were killed by CO2 asphyxiation and the liver quickly exised and placed in ice-cold buffer (0.1M phosphate buffer, pH 7.4). The liver was homogenised using a Potter-Elvehjem homogeniser with a teflon pestle and microsomes were prepared by differential centrifugation. The microsomes were resuspended by gentle homogenisation in the same buffer. The protein content was measured by the method of Lowry using bovine serum albumin as standard and the microsomes were diluted by 10 mg protein/ml. The diluted microsomes were assayed for aniline 4-hydroxylase activity and aminopyrine N-demethylase activity (results not shown) and for androst-4-ene 3, 17-dione metabolism using published methodology. […]

Glycogen phosphorylase a = Glycogen phosphorylase a activity in isolated rat hepatocytes (insulin-like activity); format: cell-based; conditions: for Activity of liver cells: Glycogen Phosphorylase a activity: isolated rat hepatocytes, Extract 1 200 μg/ml, Extract 3 1 ng/ml, Insulin 1 ng/ml, Inositol 100-100 μg/ml
Protocol: (§1) Isolated hepatocytes were prepared from control animals by a modification of the double perfusior technique of Seglen (1973) involving anaesthetising he animal with halothane/nitrous oxide and inserting a cannula into the hepatic portal vein. The liver was subsequently perfused first with a calcium-free buffer and then with collagenase solution. The isolated cells were freed from the connective tissue by gentle combing. Hepatocytes were suspended in Ham's F-10 nutrient solution, Williams' medium E or Krebs-Henseleit medium depending on the assay to be performed.
(§2) Glycogen phosphorylase a activity, as an index of insulin-like or glucagon antagonist activity can be measured using falling logarithmic concentrations of analyte in the presence or absence of insulin or glucagon.
Isolated hepatocytes, suspended in Krebs-Henseleit solution at a concentration of 10^6 cells/ml, were treated with Artemisia extract at a concentration of […] (final concentration) in the presence or absence of insulin (10^−7M) or glucagon ([…]) for 2 minutes in a shaking water bath at 37° C. under constant oxygenation with 100% oxygen. The cells were subsequently centrifuged for 30s in a Beckman Microfuge and the pellet resuspended in MOPS buffer (pH 6.5) containing sodium fluoride (12.6 g/l), EDTA (1.85 g/l) and a dithiothreitol (0.31 g/l) at 10^6 cells/ml. The suspended cells were homogenised in a Potter-Elvehjem homogeniser and the homogenate centrifuged at 300×g in a Damon-IEC refrigerated centrifuge at 4° C. for 10 minutes. The resultant supernatant was used to assay for glycogen phosphorylase a activity as described by Preiksatis & Kunos (1979). This technique involves the measurement of [^14C]glycose-1-phosphate to glycogen conversion in the presence of caffeine to inhibit glycogen phosphorylase b activity.
Each fraction was carefully evaporated to dryness and weighed in a tared vessel. The dried samples were redissolved in methanol (100 μl) and (100 μl of H2O for the void volume) and subjected to chromatography. […]

[2] = dietary supplementation; The Lancet May 20, 1989; cited from earlier work
STZ Diabetic Rats = experiment: Antidiabetic activity in STZ diabetic rats; format: in vivo, rat; conditions: Extract 2 10-120 μg/ml po
Protocol: This extract, referred to as Extract 1 or Fraction 1, was tested in rats rendered diabetic by administration of Streptotozocin (STZ), and in in vitro tests for insulin-like activity. Toxicity was tested in a bacterial (Ames) mutagenicity test.
Urine was tested for the presence of ketones and glucose using Keto-Diabur Test 5000 sticks (Boehringer Mannheim, Lewes, UK). Glucose was assayed by the glucose oxidase method as described by Trinder (1969) using a kit supplied by the Sigma Chemical Co Ltd, Pool, UK)
The animals were monitored for 7 day periods before being made diabetic, after induction of diabetes by administration of STZ and during Artemisia treatment, so that each animal acted as its own control. Food intake rose after induction of diabetes and fell again following treatment with Artemisia.

glucagon response = experiment: Glycogen phosphorylase a activity in isolated hepatocytes in the presence of glucagon (glucagon antagonist activity); format: cell-based, rat; conditions: Extract 1 200 μg/ml, Extract 3 1 ng/ml, Insulin 1 ng/ml
Protocol: as §1, §2
Isolated hepatocytes, suspended in Krebs-Henseleit solution at a concentration of 10^6 cells/ml, were treated with Artemisia extract at a concentration of […] (final concentration) in the presence or absence of insulin (10^−7M) or glucagon ([…]) for 2 minutes in a shaking water bath at 37° C. under constant oxygenation with 100% oxygen. The cells were subsequently centrifuged for 30s in a Beckman Microfuge and the pellet resuspended in MOPS buffer (pH 6.5) containing sodium fluoride (12.6 g/l), EDTA (1.85 g/l) and a dithiothreitol (0.31 g/l) at 10^6 cells/ml. […]

[3] = test system: Escherichia coli and Salmonella typhimurium; experiment: Ames bacterial mutagenicity test, liver fraction supplemented; format: cell-based; conditions: Ames test with liver fraction
Source text: Escherichia coli and Salmonella typhimurium were used in the Ames test (B. N. Ames, J. McCann, E. Yamasaki—Mutation Res. 31 (1975) 347). The bacteria used carry a mutation which makes them dependent upon the presence of a specific nutrient medium for growth. If the test substance added to the growth medium of a plate of such bacteria is mutagenic, then a small proportion of the mutations it induces will cause the nutrient dependency mutation to revert, so that the bacteria will synthesise the nutrient and grow even in its absence. Observing whether colonies grow on nutrient deficient plates in the presence and absence of the test substance will thus reveal whether the substance is mutagenic and can give a measure of the mutagenicity of the substance.

[4] = Extract 1 200 μg/ml po, Extract 3 1 ng/ml po, Insulin 1 ng/ml sc

Row | Molecule | Activity of liver cells: Steroid metabolism [1] | Activity of liver cells: Glycogen Phosphorylase a activity (Glycogen phosphorylase a) | activity in the in vitro liver cell system (Glycogen phosphorylase a; levels of up to 1 mg/ml) | improvement of nerve function in the management of complications of diabetes mellitus [2] | Excessive food intake (STZ Diabetic Rats; Extract 1 200 μg/ml po (drinking water), Extract 3 1 ng/ml po, Insulin 1 ng/ml sc) | Diuresis (STZ Diabetic Rats; Extract 1 200 μg/ml po) | Glucosuria (STZ Diabetic Rats; [4]) | Ketonuria (STZ Diabetic Rats; [4]) | Weight gain (STZ Diabetic Rats; [4]) | Activity of liver cells: Effect on glucagon response (glucagon response) | Bacterial mutagenicity [3]
1 | O[C@H]1[C@H](O)[C@@H](O)[C@H](O)[C@@H](O)[C@H]1O [Inositol] | negative | negative | inactive | no evidence | – | – | – | – | – | – | –
2 | Insulin | restored * | decreased *** | – | – | reversed | reduced | reduced | reduced | normalised | reversed *** | negative
